Experimental data as given in patent US20250127759A1, “METHODS AND DOSING REGIMENS COMPRISING A CDK2 INHIBITOR FOR THE TREATMENT OF CANCER” (PFIZER INC., priority 2021, published 2025).
“And” between values parts separate entries of the source, which are not always exact repeats. Equal entries are not always repeated. Where two headings read alike, the source gives them in different places.

Legend:
OVCAR3 cells = assay: Proliferation inhibition, OVCAR3; type: cell-based; details: Homo sapiens, OVCAR-3, 168 h, treated for 7 days
Experimental: (§1) Anti-proliferative activity was measured in cells treated for 7 days with PF-07104091 in OVCAR3 cells, Rb mutant NCI-H526 SCLC cells, and both HR-positive HER2-negative MCF7 and the subline MCF7-PalboR (resistant to palbociclib).

MCF7 cells [1] = assay: Proliferation inhibition, MCF7; type: cell-based; details: Homo sapiens, 168 h, treated for 7 days
Experimental: as §1

NCI-H526 SCLC cells = assay: Proliferation inhibition, NCI-H526; type: cell-based; details: Homo sapiens, 168 h, treated for 7 days
Experimental: as §1

MCF7 cells [2] = assay: Cell cycle distribution and DNA synthesis, MCF7; type: cell-based; details: 72-hour treatment with 300 nM
Experimental: (§2) The effect of PF-07104091 on cell cycle distribution and DNA synthesis was determined following 72-hour treatment with 300 nM PF-07104091.

MCF7-PalboR cells = assay: Cell cycle distribution and DNA synthesis, MCF7-PalboR; type: cell-based; details: 72-hour treatment with 300 nM
Experimental: as §2

[3] = Phase 1/2a study, plasma pharmacokinetics of PF-07104091; type: in vivo, human
Description: Blood samples will be collected for measurement of plasma concentrations of PF-07104091 as specified in the protocol. Samples will be used to evaluate the PK of PF-07104091. Samples collected for analyses of PF-07104091 plasma concentration may also be used to evaluate safety or efficacy aspects related to concerns arising during or after the study, for metabolite identification and/or evaluation of the bioanalytical method, or for other internal exploratory purposes.
Plasma PF-07104091 concentrations will be summarized descriptively (n, mean, standard deviation, coefficient of variation, median, minimum, maximum, geometric mean and its associated coefficient of variation) by dose, cycle, day and nominal time. Individual participant plasma PF-07104091 concentration-time data within a dose interval (with exception of the food effect substudy) after Cycle 1 Day 1 and Cycle 1 Day 15 will be analyzed using noncompartmental methods to determine single and multiple dose PK parameters. For participants in the food effect substudy, individual plasma PF-07104091 concentration-time data after Cycle 1 Day 15 and Cycle 1 Day 16 will be analyzed using noncompartmental methods to determine multiple dose PK parameters. For Part 1 of the study, single dose PK parameters to be estimated will include the Cmax, Tmax, and AUClast, and if data permit, t1/2, CL/F, and Vz/F. Multiple dose PK parameters to be estimated will include Cmax,ss, Tmax,ss, AUCT,ss, Cmin,ss, CL/F,ss, and if data permit, V/Fss, t1/2, and Rac. For Part 2 of the study (with exception of the food effect substudy), single dose PK parameters to be estimated will include Cmax, Tmax and AUClast. Multiple dose PK parameters to be estimated will include Cmax,ss, Tmax,ss, AUClast, Cmin,ss, and Rac. The single dose and steady state PK parameters will be summarized descriptively (n, mean, standard deviation, coefficient of variation, median, minimum, maximum, geometric mean and its associated coefficient of variation) by dose level, cycle and day. For participants in the food effect substudy, multiple dose PK parameters to be estimated will include Cmax,ss, AUCT,ss, Tmax,ss, Cmin,ss, CL/Fss, and if data permit, V/Fss and t1/2.
An ongoing Phase 1/2a, open-label, multicenter, multiple dose study is being conducted to determine the safety, tolerability, PK, PD, and preliminary anti-tumor activity of PF-07104091 as a single agent and in combination with endocrine therapy. PF-07104091 is administered orally twice daily (BID) during 28-day cycles.
Preliminary concentration-time data of PF-07104091 following single and multiple oral administration at 75 mg BID to 500 mg BID as monotherapy or in combination with endocrine therapy alone or in combination with palbociclib and endocrine therapy were available from 44 participants with advanced solid tumors and HR-positive HER2-negative advanced or metastatic breast cancer. The preliminary concentration-time data were analyzed by noncompartmental approach using actual PK sampling times.
[…] Individual values are listed when the number of participants with available parameters is less than 3.

[4] = Cycle 1 Day 1, single oral dose, 375 mg BID monotherapy, individual values
[5] = Cycle 1 Day 15, repeated BID oral, 75 mg BID monotherapy, individual values

With `COCc1cc(C(=O)Nc2cc([C@H]3CC[C@@H](OC(=O)NC(C)C)C3)[nH]n2)n(C)n1` [PF-07104091, (1R,3S)-3-[3-({[3-(methoxymethyl)-1-methyl-1H-pyrazol-5-yl]carbonyl}amino)-1H-pyrazol-5-yl]cyclopentyl propan-2-ylcarbamate] the IC50 (OVCAR3 cells) was 118 nM, the IC50 (MCF7 cells [1]) was 252 nM and the IC50 (NCI-H526 SCLC cells) was 136 nM. The cell cycle arrest (MCF7 cells [2]) was “significant G2/M arrest”, the “S phase (cell cycle distribution)” value (MCF7 cells [2]; p≤0.05 versus vehicle) was “Significant S phase reduction” and the cell cycle arrest (MCF7-PalboR cells) was “significant G2/M arrest”. For the same compound, the “S phase (cell cycle distribution)” value (MCF7-PalboR cells; p≤0.05 versus vehicle) was “Significant S phase reduction”, the AUClast [3, 4] was 14424 ng·h/mL and the Cmax [3, 4] was 2890 ng/mL. The Tmax [3, 4] was 4.0, 4.0 h, the Rac ([3]; Cycle 1 Day 15, repeated BID oral, 75 mg BID (1B), with palbociclib and fulvestrant, arithmetic mean ± SD) was 1.2 ± 0.1 and the AUClast [3, 5] was 2321, ng*h/mL. For the same compound, the Cmax [3, 5] was 398, ng/mL, the Rac [3, 5] was 1.4 and 2.7 and the Rac ([3]; Cycle 1 Day 15, repeated BID oral, 150 mg BID monotherapy, arithmetic mean ± SD) was 1.8 ± 0.2. The Rac ([3]; Cycle 1 Day 15, repeated BID oral, 225 mg BID monotherapy, arithmetic mean ± SD) was 1.8 ± 0.7, the Rac ([3]; Cycle 1 Day 15, repeated BID oral, 300 mg BID monotherapy, arithmetic mean ± SD) was 1.9 ± 1.1 and the Rac ([3]; Cycle 1 Day 15, repeated BID oral, 500 mg BID monotherapy, individual value, N = 1) was 1.1. For the same compound, the accumulation ([3]; following repeated BID administration) was “moderate accumulation”, the half-life ([3]; human, plasma, po, 75 mg BID to 500 mg BID, read-out: average half-life (converted)) was roughly 2 h and the half-life ([3]; human, plasma, po, 75 mg, Cycle 1 Day 1, single oral dose, 75 mg BID (1B), with palbociclib and fulvestrant, arithmetic mean ± SD, read-out: t1/2 (converted)) was 1.9 ± 0.2 h. The AUC(0-t) ([3]; human, plasma, po, 75 mg, Cycle 1 Day 1, single oral dose, 75 mg BID (1B), with palbociclib and fulvestrant, geometric mean (CV %)) was 2760 ng·h/mL, the Cmax ([3]; human, plasma, po, 75 mg, Cycle 1 Day 1, single oral dose, 75 mg BID (1B), with palbociclib and fulvestrant, geometric mean (CV %), read-out: Cmax) was 694 ng/mL and the Tmax ([3]; human, plasma, po, 75 mg, Cycle 1 Day 1, single oral dose, 75 mg BID (1B), with palbociclib and fulvestrant, median (range), read-out: Tmax) was 1.6 h. The half-life ([3]; human, plasma, po, 75 mg, Cycle 1 Day 1, single oral dose, 75 mg BID (1C), with palbociclib and letrozole, arithmetic mean ± SD, read-out: t1/2 (converted)) was 1.6 ± 0.5 h, the AUC(0-t) ([3]; human, plasma, po, 75 mg, Cycle 1 Day 1, single oral dose, 75 mg BID (1C), with palbociclib and letrozole, geometric mean (CV %)) was 2460 ng·h/mL and the Cmax ([3]; human, plasma, po, 75 mg, Cycle 1 Day 1, single oral dose, 75 mg BID (1C), with palbociclib and letrozole, geometric mean (CV %), read-out: Cmax) was 648 ng/mL. For the same compound, the Tmax ([3]; human, plasma, po, 75 mg, Cycle 1 Day 1, single oral dose, 75 mg BID (1C), with palbociclib and letrozole, median (range), read-out: Tmax) was 0.5 h, the half-life ([3]; human, plasma, po, 75 mg, Cycle 1 Day 1, single oral dose, 75 mg BID monotherapy, arithmetic mean ± SD, read-out: t1/2 (converted)) was 2.4 ± 0.7 h and the AUC(0-t) ([3]; human, plasma, po, 75 mg, Cycle 1 Day 1, single oral dose, 75 mg BID monotherapy, geometric mean (CV %)) was 1750 ng·h/mL. For the same compound, the Cmax ([3]; human, plasma, po, 75 mg, Cycle 1 Day 1, single oral dose, 75 mg BID monotherapy, geometric mean (CV %), read-out: Cmax) was 362 ng/mL, the Tmax ([3]; human, plasma, po, 75 mg, Cycle 1 Day 1, single oral dose, 75 mg BID monotherapy, median (range), read-out: Tmax) was 2 h and the half-life ([3]; human, plasma, po, 75 mg, Cycle 1 Day 15, repeated BID oral, 75 mg BID (1B), with palbociclib and fulvestrant, arithmetic mean ± SD, read-out: t1/2 (converted)) was 3.6 ± 0.9 h. The AUC(0-t) ([3]; human, plasma, po, 75 mg, Cycle 1 Day 15, repeated BID oral, 75 mg BID (1B), with palbociclib and fulvestrant, geometric mean (CV %)) was 3080 ng·h/mL, the Cmax ([3]; human, plasma, po, 75 mg, Cycle 1 Day 15, repeated BID oral, 75 mg BID (1B), with palbociclib and fulvestrant, geometric mean (CV %), read-out: Cmax) was 698 ng/mL and the Tmax ([3]; human, plasma, po, 75 mg, Cycle 1 Day 15, repeated BID oral, 75 mg BID (1B), with palbociclib and fulvestrant, median (range), read-out: Tmax) was 1.2 h. The AUC(0-t) ([3]; human, plasma, po, 75 mg, Cycle 1 Day 15, repeated BID oral, 75 mg BID monotherapy, individual values) was 3580 ng·h/mL.
